Data as given in patent US12479847B2 (DANA-FARBER CANCER INSTITUTE, INC., priority 2019, dated 2025).

Assays:
Experiment in all cases: KINOMEscan (ScanMAX) kinase profiling
Format in all cases: binding
[1] = target: T1, panel of 468 kinases (Homo sapiens, UniProt O75914); conditions: PAK3; 1 μM; read-out: % control
T1 construct: purchased KINOMEscan (ScanMAX) service

[2] = target: T2, panel of 468 kinases (Homo sapiens, UniProt P53778); conditions: p38-gamma; 1 μM; read-out: % control
T2 construct: purchased KINOMEscan (ScanMAX) service
T2 sequence (P53778 1-367): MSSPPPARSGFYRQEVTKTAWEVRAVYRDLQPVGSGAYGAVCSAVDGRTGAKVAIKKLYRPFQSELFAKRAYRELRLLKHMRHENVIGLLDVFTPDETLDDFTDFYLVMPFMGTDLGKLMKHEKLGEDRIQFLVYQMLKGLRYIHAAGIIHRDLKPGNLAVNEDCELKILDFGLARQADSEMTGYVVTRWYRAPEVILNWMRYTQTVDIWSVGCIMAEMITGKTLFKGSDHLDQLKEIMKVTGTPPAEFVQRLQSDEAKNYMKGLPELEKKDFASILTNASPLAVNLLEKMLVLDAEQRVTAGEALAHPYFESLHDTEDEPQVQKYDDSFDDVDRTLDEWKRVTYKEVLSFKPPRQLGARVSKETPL

[3] = target: T3, panel of 468 kinases (Homo sapiens, UniProt P00519, M351T); conditions: ABL1(M351T)-phosphorylated; 1 μM; read-out: % control
T3 construct: purchased KINOMEscan (ScanMAX) service

[4] = target: T4, panel of 468 kinases (Homo sapiens, UniProt Q9NRP7); conditions: STK36; 1 μM; read-out: % control
T4 construct: purchased KINOMEscan (ScanMAX) service
T4 sequence (Q9NRP7 1-1315): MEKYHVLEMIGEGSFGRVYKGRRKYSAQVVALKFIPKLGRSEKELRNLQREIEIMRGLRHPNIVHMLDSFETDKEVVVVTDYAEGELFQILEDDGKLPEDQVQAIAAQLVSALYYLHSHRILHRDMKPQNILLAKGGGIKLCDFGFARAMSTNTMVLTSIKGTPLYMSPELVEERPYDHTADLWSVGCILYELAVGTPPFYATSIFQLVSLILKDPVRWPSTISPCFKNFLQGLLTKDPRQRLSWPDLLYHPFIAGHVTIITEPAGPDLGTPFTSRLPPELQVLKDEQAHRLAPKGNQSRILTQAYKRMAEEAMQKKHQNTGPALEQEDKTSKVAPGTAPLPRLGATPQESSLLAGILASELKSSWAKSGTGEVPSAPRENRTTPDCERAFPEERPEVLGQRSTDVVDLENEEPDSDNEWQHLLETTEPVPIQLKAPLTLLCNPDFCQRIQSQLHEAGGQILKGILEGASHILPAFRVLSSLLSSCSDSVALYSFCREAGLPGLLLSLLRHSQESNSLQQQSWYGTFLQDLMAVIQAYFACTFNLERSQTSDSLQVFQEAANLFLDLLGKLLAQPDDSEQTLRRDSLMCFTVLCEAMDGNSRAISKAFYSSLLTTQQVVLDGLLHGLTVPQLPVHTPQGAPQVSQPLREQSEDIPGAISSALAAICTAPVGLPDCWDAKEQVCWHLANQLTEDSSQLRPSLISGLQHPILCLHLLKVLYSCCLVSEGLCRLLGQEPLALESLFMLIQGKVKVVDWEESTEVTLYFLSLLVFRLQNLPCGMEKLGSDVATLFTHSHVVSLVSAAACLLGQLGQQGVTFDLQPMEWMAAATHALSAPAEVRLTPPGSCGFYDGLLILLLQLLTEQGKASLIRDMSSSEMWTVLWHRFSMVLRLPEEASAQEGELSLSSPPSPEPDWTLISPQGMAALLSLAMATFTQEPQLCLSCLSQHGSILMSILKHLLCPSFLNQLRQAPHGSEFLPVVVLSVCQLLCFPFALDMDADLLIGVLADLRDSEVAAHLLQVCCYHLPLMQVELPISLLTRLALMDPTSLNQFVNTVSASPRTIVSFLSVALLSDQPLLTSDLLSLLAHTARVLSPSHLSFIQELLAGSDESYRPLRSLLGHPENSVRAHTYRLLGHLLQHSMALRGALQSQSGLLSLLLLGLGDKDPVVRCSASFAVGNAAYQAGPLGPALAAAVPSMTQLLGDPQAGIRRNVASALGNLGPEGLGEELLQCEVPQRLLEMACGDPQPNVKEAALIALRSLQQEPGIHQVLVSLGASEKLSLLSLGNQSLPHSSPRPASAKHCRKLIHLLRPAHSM

[5] = target: T5, panel of 468 kinases (Homo sapiens, UniProt Q7KZI7); conditions: MARK2; 1 μM; read-out: % control
T5 construct: purchased KINOMEscan (ScanMAX) service

[6] = target: T6, panel of 468 kinases (Homo sapiens, UniProt P09619); conditions: PDGFRB; 1 μM; read-out: % control
T6 construct: purchased KINOMEscan (ScanMAX) service
T6 sequence (P09619 33-1106): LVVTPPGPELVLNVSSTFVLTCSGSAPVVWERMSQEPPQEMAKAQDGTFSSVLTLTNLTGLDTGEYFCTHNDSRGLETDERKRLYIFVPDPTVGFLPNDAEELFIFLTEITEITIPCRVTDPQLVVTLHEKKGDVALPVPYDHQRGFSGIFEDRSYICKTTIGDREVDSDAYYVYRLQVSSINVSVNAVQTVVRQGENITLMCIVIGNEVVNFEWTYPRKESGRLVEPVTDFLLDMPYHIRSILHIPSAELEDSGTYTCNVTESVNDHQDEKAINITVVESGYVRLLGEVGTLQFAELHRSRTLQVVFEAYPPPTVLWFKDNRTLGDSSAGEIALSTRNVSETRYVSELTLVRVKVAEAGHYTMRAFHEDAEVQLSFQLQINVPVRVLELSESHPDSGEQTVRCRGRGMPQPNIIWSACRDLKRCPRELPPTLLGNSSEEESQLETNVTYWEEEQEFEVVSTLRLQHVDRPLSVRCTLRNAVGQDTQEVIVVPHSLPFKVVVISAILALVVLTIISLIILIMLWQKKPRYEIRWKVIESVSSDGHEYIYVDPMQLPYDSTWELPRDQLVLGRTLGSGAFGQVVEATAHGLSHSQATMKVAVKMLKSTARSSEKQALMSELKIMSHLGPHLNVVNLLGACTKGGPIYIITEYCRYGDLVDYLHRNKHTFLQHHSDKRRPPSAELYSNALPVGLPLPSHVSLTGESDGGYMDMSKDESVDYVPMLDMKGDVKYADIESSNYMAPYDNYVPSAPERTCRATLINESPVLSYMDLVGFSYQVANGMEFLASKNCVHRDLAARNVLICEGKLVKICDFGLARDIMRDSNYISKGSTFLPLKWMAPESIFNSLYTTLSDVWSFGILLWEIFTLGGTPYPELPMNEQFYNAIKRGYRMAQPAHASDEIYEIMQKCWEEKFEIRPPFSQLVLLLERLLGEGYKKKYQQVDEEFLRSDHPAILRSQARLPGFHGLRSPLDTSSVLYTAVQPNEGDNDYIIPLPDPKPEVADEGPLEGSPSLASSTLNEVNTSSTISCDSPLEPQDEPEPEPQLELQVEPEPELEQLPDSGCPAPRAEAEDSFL

T1 sequence (O75914 whole entry): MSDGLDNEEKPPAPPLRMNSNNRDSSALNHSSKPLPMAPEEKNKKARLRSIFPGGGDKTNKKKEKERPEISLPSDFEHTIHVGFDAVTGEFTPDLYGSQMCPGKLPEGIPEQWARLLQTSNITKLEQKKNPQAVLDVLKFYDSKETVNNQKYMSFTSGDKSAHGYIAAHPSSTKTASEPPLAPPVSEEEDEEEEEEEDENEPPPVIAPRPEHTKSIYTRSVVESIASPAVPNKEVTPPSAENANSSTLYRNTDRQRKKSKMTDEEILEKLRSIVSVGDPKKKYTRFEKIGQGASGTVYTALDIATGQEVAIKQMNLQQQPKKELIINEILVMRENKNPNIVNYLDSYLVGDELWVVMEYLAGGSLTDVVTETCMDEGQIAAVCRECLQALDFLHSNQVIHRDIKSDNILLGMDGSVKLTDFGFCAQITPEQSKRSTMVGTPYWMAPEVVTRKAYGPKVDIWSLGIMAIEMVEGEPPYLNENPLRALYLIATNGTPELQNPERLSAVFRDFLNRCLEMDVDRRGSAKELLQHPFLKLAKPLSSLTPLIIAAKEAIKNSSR
T5 sequence (Q7KZI7 whole entry): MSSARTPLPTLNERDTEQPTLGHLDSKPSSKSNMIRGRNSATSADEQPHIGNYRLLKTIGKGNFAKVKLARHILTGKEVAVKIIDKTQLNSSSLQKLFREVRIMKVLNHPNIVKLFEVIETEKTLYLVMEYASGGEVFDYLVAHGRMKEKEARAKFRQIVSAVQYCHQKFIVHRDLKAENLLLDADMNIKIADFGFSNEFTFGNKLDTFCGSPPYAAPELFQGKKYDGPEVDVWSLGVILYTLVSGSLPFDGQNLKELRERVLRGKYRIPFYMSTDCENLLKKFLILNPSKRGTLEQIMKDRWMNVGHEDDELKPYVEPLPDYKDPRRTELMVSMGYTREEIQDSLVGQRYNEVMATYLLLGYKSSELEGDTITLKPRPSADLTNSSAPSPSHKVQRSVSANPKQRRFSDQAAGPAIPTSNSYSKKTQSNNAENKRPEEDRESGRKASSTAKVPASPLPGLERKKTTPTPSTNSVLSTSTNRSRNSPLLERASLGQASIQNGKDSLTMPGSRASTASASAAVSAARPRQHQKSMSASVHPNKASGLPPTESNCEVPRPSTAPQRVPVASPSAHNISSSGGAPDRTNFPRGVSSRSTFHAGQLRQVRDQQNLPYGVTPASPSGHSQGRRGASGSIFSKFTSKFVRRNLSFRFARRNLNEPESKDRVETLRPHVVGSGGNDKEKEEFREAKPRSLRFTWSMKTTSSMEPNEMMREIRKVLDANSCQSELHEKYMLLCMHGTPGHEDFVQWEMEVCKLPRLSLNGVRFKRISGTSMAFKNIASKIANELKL

| SMILES | remaining binding at 1 µM [1] [%] | remaining binding at 1 µM [2] [%] | remaining binding at 1 µM [3] [%] | remaining binding at 1 µM [4] [%] | remaining binding at 1 µM [5] [%] | remaining binding at 1 µM [6] [%] |
| --- | --- | --- | --- | --- | --- | --- |
| CNc1nc(Nc2ccc(C(=O)N3CCC(N4CCOCC4)CC3)c3c2OCO3)nc2[nH]cc(Cl)c12 [Compound 75, (7-((5-chloro-4-(methylamino)-7H-pyrrolo[2,3-d]pyrimidin-2-yl)amino)benzo[d][1,3]dioxol-4-yl)(4-morpholinopiperidin-1-yl)methanone] | 97 | 91 | 59 | 100 | 100 | 56 |
| CNc1nc(Nc2ccc(S(=O)(=O)N3CCC(N4CCOCC4)CC3)cc2OC)nc2[nH]cc(Cl)c12 [Compound 12, 5-chloro-N2-(2-methoxy-4-((4-morpholinopiperidin-1-yl)sulfonyl)phenyl)-N4-methyl-7H-pyrrolo[2,3-d]pyrimidine-2,4-diamine] | 100 | 100 | 64 | 100 | 100 | 89 |
| CNc1nc(Nc2ccc(P3(=O)CCN(C4CCOCC4)CC3)cc2OC)nc2[nH]cc(Cl)c12 [Compound 77, 4-(4-((5-chloro-4-(methylamino)-7H-pyrrolo[2,3-d]pyrimidin-2-yl)amino)-3-methoxyphenyl)-1-(tetrahydro-2H-pyran-4-yl)-1,4-azaphosphinane 4-oxide] | 91 | 98 | 70 | 100 | 100 | 100 |
